Assay results: ChEMBL document CHEMBL1127747, “The effect of the aromatic rings of taxol on biological activity and solution conformation: synthesis and evaluation of saturated taxol and taxotere analogues” (1994)

Assays:
[1] = tested on: B16; test: In vitro cytotoxic activity was evaluated against B16 melanoma cells relative to taxol; ED50/ED50; format: functional
[2] = In vitro cytotoxic activity was evaluated by microtubule assembly assay relative to taxol; ED50/ED50; format: functional

| SMILES | Ratio [1] | Ratio [2] |
| --- | --- | --- |
| CC(=O)O[C@H]1C(=O)[C@@]2(C)C([C@H](OC(=O)C3CCCCC3)[C@]3(O)C[C@H](OC(=O)[C@H](O)C(NC(=O)C4CCCCC4)C4CCCCC4)C(C)=C1C3(C)C)[C@]1(OC(C)=O)CO[C@@H]1C[C@@H]2O (some centres not stated) | 1.6 | 0.47 |
| CC(=O)O[C@H]1C(=O)[C@@]2(C)C([C@H](OC(=O)c3ccccc3)[C@]3(O)C[C@H](OC(=O)[C@H](O)C(NC(=O)c4ccccc4)C4CCCCC4)C(C)=C1C3(C)C)[C@]1(OC(C)=O)CO[C@@H]1C[C@@H]2O (some centres not stated) | 0.91 | 0.29 |
| CC(=O)O[C@H]1C(=O)[C@@]2(C)C([C@H](OC(=O)c3ccccc3)[C@]3(O)C[C@H](OC(=O)[C@H](O)C(NC(=O)OC(C)(C)C)c4ccccc4)C(C)=C1C3(C)C)[C@]1(OC(C)=O)CO[C@@H]1C[C@@H]2O (some centres not stated) | 0.23 | 0.55 |
| CC(=O)O[C@H]1C(=O)[C@@]2(C)C([C@H](OC(=O)C3CCCCC3)[C@]3(O)C[C@H](OC(=O)[C@H](O)C(NC(=O)OC(C)(C)C)c4ccccc4)C(C)=C1C3(C)C)[C@]1(OC(C)=O)CO[C@@H]1C[C@@H]2O (some centres not stated) | 1.1 | 0.67 |
| CC(=O)O[C@@]12CO[C@@H]1C[C@H](O)[C@@]1(C)C(=O)[C@H](O)C3=C(C)[C@@H](OC(=O)[C@H](O)[C@@H](NC(=O)OC(C)(C)C)c4ccccc4)C[C@@](O)([C@@H](OC(=O)c4ccccc4)[C@H]21)C3(C)C.O.O.O [DOCETAXEL] | 0.41 | 0.45 |
| CC(=O)O[C@H]1C(=O)[C@@]2(C)[C@H]([C@H](OC(=O)c3ccccc3)[C@]3(O)C[C@H](OC(=O)[C@H](O)[C@@H](NC(=O)c4ccccc4)c4ccccc4)C(C)=C1C3(C)C)[C@]1(OC(C)=O)CO[C@@H]1C[C@@H]2O [PACLITAXEL] | 1 | 1 |
